Measured values: patent publication US20110288036A1, “Methods for Treating or Preventing Vascular Graft Failure” (priority 2010, published 2011)

Tested on: human saphenous vein (HSV)
Test: Human saphenous vein organ culture model of intimal hyperplasia
Assay type: cell-based
Details: for average intimal thickness: control 81.6±17.3, pre-culture 43.7±7.8
Protocol: De-identified, discarded segments of human saphenous vein (HSV) were collected from consented patients undergoing coronary artery or peripheral vascular bypass surgeries. HSV segments were stored in a saline solution until the end of the surgical procedure, at which time they were placed in cold transplant harvest buffer (100 mM potassium lactobionate, 25 mM KH2PO4, 5 mM MgSO4, 30 mM Raffinose, 5 mM Adenosine, 3 mM Glutathione, 1 mM Allopurinol, 50 g/L Hydroxyethyl starch, pH 7.4). The vessels were used within 24 hours of harvest. Using sterile technique, HSV segments were transferred to a 60-mm Petri dish under a sterile hood. The edges (0.5 mm) of each segment were removed with a blade and excess adventitial tissue and fat removed with minimal manipulation. HSV segments were cut into consecutive rings of approximately 1.0 mm in width to be utilized for organ culture or muscle bath experiments. Two rings from each segment were immediately fixed in 10% formalin at 37° C. for 30 min to obtain pre-culture intimal thickening measurements.
After viability was determined in the muscle bath, additional rings were cut and placed in 8-well chamber slides and maintained in RPMI 1640 medium supplemented with 30% FBS, 1% L-glutamine and 1% penicillin/streptomycin for 14 days at 37° C. in an atmosphere of 5% CO2 in air. The rings were either untreated or treated with 10 μM, 50 μM or 100 μM of MMI-0100 peptide ([…] (SEQ ID NO: 1)). The culture medium with treatments was replaced every 2-3 days.
After 14 days of organ culture, vein segments were fixed in 0.5 mL of 10% formalin at 37° C. for 30 minutes and embedded in paraffin for sectioning. Beginning at the mid-portion of each ring, 5 transverse sections, spaced 5 μm apart, were cut for each specimen. Sections were then stained with Verhoeff-van Gieson stain. Each section was examined using light microscopy (Carl Zeiss, Thornwood, N.Y.) and 6 radially parallel measurements of intimal and medial thickness were randomly taken from each section ([…]). Intima was defined as tissue on the luminal side of the internal elastic lamina or the chaotic organization of the cells contained within it, whereas the medial layer was contained between the intimal layer and the external elastic lamina. Intimal and medial thickening was measured for each section at 5× magnification with the microscope's computerized image analysis system.
To this end, rings of human saphenous vein (HSV) were cultured in RPMI medium supplemented with L-glutamine (1%), penicillin/streptomycin (1%), and fetal bovine serum (FBS) (30%) at 5% CO2 and 37° C. for 14 days.
The effect of MMI-0100 ([…]; SEQ ID NO: 1) on development of intimal hyperplasia was further examined in a follow-up study in which intimal thickness of HSV in an organ culture model was measured in the presence of high serum and different concentrations (10-100 μM) of MMI-0100 ([…]; SEQ ID NO: 1). HSV were cultured for 14 days in 30% serum. All veins were deemed viable at the time of culture by adequate contraction with a phenylephrine challenge in a muscle bath. The average intimal thickness of pre-cultured vein segments was 43.7±7.8 μm. After culture, the average intimal thickness of the control was 81.6±17.3 μm. The average intimal thickness in the presence of 50 μM and 100 μM MMI-0100 ([…]; SEQ ID NO: 1) was 42.7±6.0 μm and 50.4±10.7 μm, respectively, with a significant reduction in intimal thickness (FIGS. 10A and 11).

With YARAAARQARAKALARQLGVAA [MMI-0100] the “mean intimal thickness of HSV in culture” value (5 μM or 10 μM, 14 days culture, in contrast to r-HSPB1) was “significantly reduced the mean intimal thickness”, the mean intimal thickness (10 μM, 14 days culture) was 14 μm and the average intimal thickness (50 μM, 14 days, 30% serum) was 42.7±6.0 μm. For the same sequence, the “intima:media (I:M) ratio” value (100 μM, 14 days, 30% serum) was “greater reduction of the I:M ratio” and the average intimal thickness (100 μM, 14 days, 30% serum) was 50.4±10.7 μm.
